Measurements from patent publication US5516797A, “Immunosuppressive compounds” (Vertex Pharmaceuticals, Incorporated, priority 1994, dated 1996).

Tests used:
[1] = molecular target: T1, FK-506 binding protein (FKBP) (Homo sapiens, UniProt P62942); experiment: Inhibition of PPIase (rotamase) enzyme activity of FKBP (apparent Ki); assay type: biochemical; details: substrate N-succinylAla-Ala-Pro-Phe-p-nitroanilide, chymotrypsin-coupled
Excerpt: The inhibition of the PPIase (rotamase) enzyme activity of the FKBP (apparent "Ki" values) can also be measured according to the methods described by either Harding, M. W. et al., Nature 341:758-760 (1989) or Siekierka, J. J. et al., Nature 341:755-757 (1989). The cis-trans isomerization of the proline-alanine peptide bond in a model substrate, N-succinylAla-Ala-Pro-Phe-p-nitroanilide, is monitored spectrophotometrically in a coupled assay with chymotrypsin, which releases 4-nitroanilide from the trans form of the substrate. Fischer, G. et al., Nature 337:476-478 (1989). The inhibitory effect of the addition of different concentrations of inhibitor on the extent of the reaction is determined, and analysis of the change in first order rate constant as a function of inhibitor concentration yields an estimate of the apparent Ki value.

[2] = molecular target: T1, FK-506 binding protein (FKBP); experiment: Competitive binding to FKBP against [3H]dihydro-FK-506 (apparent Kd); details: competition with [3H]dihydro-FK-506
[3] = test system: human peripheral blood lymphocytes; experiment: Mitogenesis assay OKT3: inhibition of proliferation of human PBLs; assay type: cell-based; details: Lymphocyte, OKT3 (10^-4 dilution final), 48 h incubation
Description: (§1) PMA and OKT3mitogens used to stimulate proliferation of human peripheral
(§2) blood lymphocytes (PBC). Compounds are evaluated on their ability to
(§3) Fresh peripheral blood lymphocytes (PBLs) from LeukoPak cells or whole blood from random normal blood donors (tested HIV-negative and hepatitis negative) are isolated and separated by density centrifugation over Histopaque 1077 (Sigma Chemical Co., St. Louis, Mo.). The murine CTLL cytotoxic T cell line and the human Jurkat T cell line are from ATCC (CTLL-2 ATCC TIB214, JURKAT CLONE E6-1 ATCC TIBl52). The human allogeneic B cell lines used for activation of the fresh PBLs are EBV-transformed lymphocytes from normal healthy adult donors with two completely different HLAhaplotypes. All cell lines were routinely tested for the presence of Mycolasma contamination using the GibcoMycotect test kit and are Mycolasma-free. Culture medium consksts of RPMI 1640 (Gibco, Grand Island, N.Y.) containing penicillin (50 U/ml) and streptomycin (50 μg/ml), L-glutamine 2 mM, 2 mercaptoethanol (5×10^-5), 10% heat-inactivated FCS and 10 mM HEPES.
(§4) All chemical stocks were dissolved in DMSO.
(§5) Mitogenesis Assays ("PMA" and "OKT3")
(§6) After 48 h incubation (37° C., 5% CO2), cells were pulsed with 1 μCi of ^3 H-thymidine, harvested 24 h later with a Tom Tek cell harvester, and counted in LKB β-scintillation counter.

[4] = test system: human peripheral blood lymphocytes; experiment: Mitogenesis assay PMA: inhibition of proliferation of human PBLs; assay type: cell-based; details: Lymphocyte, PMA (10 ng/ml) plus ionomycin (250 ng/ml), 48 h incubation
Description: as §1, §2, §3, §4, §5, §6

[5] = test system: PBLs stimulated with JVM human viral transformed B lymphoblastoid cells; experiment: MLR bioassay JVM: inhibition of proliferation in mixed lymphocyte reaction; assay type: cell-based; details: Lymphoblastoid cell, pulsed on day 6, harvested 24 h later
Description: (§7) LB and JVMhuman viraltransformed B lymphoblastoid cell lines stimulated t
(§8) proliferate in a mixed lymphocyte reaction (MLR). The compounds are
(§9) evaluated on their ability to inhibit this proliferation.
as §3, §4
(§10) MLR Bioassays ("LB" and "JVM")
(§11) Antigen activated proliferation of PBLs in a primary mixed lymphocyte reaction was assessed in the presence or absence of different concentrations of tested compounds and control drugs. 5×10^4 fresh PBLs were stimulated with 5×10^3 of Mitomycin C treated-allogeneic EBV-transformed β-lymphoglastoid cells, IB and JVM, in a final volume of 200 μl per well in 96-well round-bottomed plates (Mishell, B. B. and S. M. Shiigi, Selected Methods in Cellular Immunology W. H. Freeman and Co., San Francisco, Calif. (1980); Nelson, P. A. et al., Transplantation 50:286 (1990)). Cultures were pulsed on day 6, harvested 24 h later and counted as in previous section.

[6] = test system: PBLs stimulated with LB human viral transformed B lymphoblastoid cells; experiment: MLR bioassay LB: inhibition of proliferation in mixed lymphocyte reaction; assay type: cell-based; details: Lymphoblastoid cell, pulsed on day 6, harvested 24 h later
Description: as §7, §8, §9, §3, §4, §10, §11

T1 sequence (P62942 whole entry): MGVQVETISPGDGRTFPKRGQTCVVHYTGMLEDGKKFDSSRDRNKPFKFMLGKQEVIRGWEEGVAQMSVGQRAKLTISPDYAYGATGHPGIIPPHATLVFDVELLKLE

SMILES	Ki [1] [µM]	Kd [2] [µM]	IC50 [3] [µM]	IC50 [4] [µM]	IC50 [5] [µM]	IC50 [6] [µM]
COC(=O)C(=O)N(C)[C@@H](C)C(=O)OCc1ccccc1 [Compound 125]	400	> 200				
COc1ccc(/C=C/C(=O)N2CCCC[C@H]2C(=O)OCc2ccccc2)cc1 [Compound 112, (S)-Benzyl N-(4-Methoxycinnamoyl)pipecolate]	4	> 8				
COc1ccc(/C=C/C(=O)C(=O)N2CCCC[C@H]2C(=O)OCc2ccccc2)cc1 [Compound 45]	1		> 10	> 10	> 10	> 10
O=C(C(=O)N1CCCC[C@H]1C(=O)Oc1cccc2ccccc12)c1ccccc1 [Compound 5]	0.9		> 10	> 10	> 10	> 10
COc1cc(C(=O)C(=O)N2CCCC[C@H]2C(=O)OCc2ccc(Oc3ccccc3)cc2)cc(OC)c1OC [Compound 73]	0.8		> 10	8	6	4.5
CCOc1cccc(C(=O)C(=O)N2CCCC[C@H]2C(=O)OCc2ccccc2)c1 [Compound 60]	0.56		> 10	> 10	> 10	> 10
COc1cc(C(=O)C(=O)N2CCCC[C@H]2C(=O)OCCCn2cnc3ccccc32)cc(OC)c1OC [Compound 106]	0.11		> 10	7	> 10	> 10
COC(=O)C(=O)N1CCCC[C@H]1C(=O)OCc1ccccc1 [Compound 31]		> 50				
O=C(C(=O)N1CCCC[C@H]1C(=O)OCc1ccccc1)c1ccco1 [Compound 20, (S)-Benzyl N-(2-furylglyoxyl)pipecolate]		> 12				
O=C(C(=O)N1CCCC[C@H]1C(=O)OCCCCc1ccccc1)c1ccc2c(c1)OCO2 [Compound 100]	0.25		> 10	> 10	> 10	> 10
CCCCOc1cccc(C(=O)C(=O)N2CCCC[C@H]2C(=O)OCCCc2ccccc2)c1 [Compound 92]	1.4		> 10	9	> 10	> 10
CCC(=O)C(=O)N1CCCC[C@H]1C(=O)OCCCCc1ccccc1 [Compound 105]	1.6		> 10	> 10	> 10	> 10
COc1cc(C(=O)C(=O)N2CCCC[C@H]2C(=O)OCc2ccc(I)cc2)cc(OC)c1OC [Compound 78]	1.4		> 10	> 10	> 10	> 10
COc1ccc(C(=O)C(=O)N2CCCC[C@H]2C(=O)OCCCCc2ccccc2)cc1C1CCCCC1 [Compound 102]	14		> 10	> 10	10	10
CC(C)Oc1cccc(C(=O)C(=O)N2CCCC[C@H]2C(=O)OCc2ccccc2)c1 [Compound 66]	0.5		> 10	> 10	> 10	> 10
COc1cc(C(=O)C(=O)N2CCCC[C@H]2C(=O)OCCc2cccc3ccccc23)cc(OC)c1OC [Compound 80]	0.5		4	3	10	10
CC(C)(C)c1ccc(C(=O)C(=O)N2CCCC[C@H]2C(=O)OCCCCc2ccccc2)cc1 [Compound 97]	0.6		> 10	> 10	> 10	> 10
COc1cc(C(=O)C(=O)N2CCCC[C@H]2C(=O)OCCCn2cnc3cncnc32)cc(OC)c1OC [Compound 107]	0.13		> 10	6.5	> 10	> 10
COc1cc(C(=O)C(=O)N2CCCC[C@H]2C(=O)OCCc2ccc3ccccc3c2)cc(OC)c1OC [Compound 79]	0.22		2.5	10	> 10	> 10
O=C(C(=O)N1CCCC[C@H]1C(=O)OCCCCCCc1ccccc1)c1ccccc1 [Compound 69]	0.5		> 10	6.1	> 10	> 10
O=C(C(=O)N1CCCC[C@H]1C(=O)OCCCCc1ccccc1)C1CCOCC1 [Compound 101]	0.44		> 10	> 10	> 10	> 10
